Results reported in patent US20230265151A1, “GIP/GLP1 CO-AGONIST COMPOUNDS” (priority 2020, published 2023).
Read-outs that look alike come from different tables or passages of the source. *1 amine or outer side, *2 acyl side, *3 side chain or, on linkers, in order; H or OH if unused. Where a SMILES comes first, the peptide text is derived from it. Side-chain parts run from the residue outwards. [ ]: non-standard residue; d: D form. The star is where a group is joined. αMePhe(2-F) = C[C@](N)(Cc1ccccc1F)C(=O)O; γGlu = O=C(O)[C@H](CCC(=O)[*:2])N[*:1]; C14 diacid = O=C(O)CCCCCCCCCCCCC(=O)*; εLys = N[C@@H](CCCCN[*:1])C(=O)[*:2]; αMeY = C[C@](N)(Cc1ccc(O)cc1)C(=O)O; 4Pal = N[C@@H](Cc1ccncc1)C(=O)O; αMeL = CC(C)C[C@](C)(N)C(=O)O; Orn = NCCC[C@H](N)C(=O)O; AEEA = NCCOCCOCC(=O)O; Aib = CC(C)(N)C(=O)O

Legend:
Type in all cases: cell-based
[1] = molecular target: hGLP-1R (Homo sapiens, UniProt P43220); assay: Functional cAMP formation (HTRF) in HEK-293 clonal cells expressing hGLP-1R, 0.1% bovine casein, without or with 1.0% human serum albumin; design: expressed in transfected cells; conditions: for EC50: geometric mean; for Emax: percent of maximal response to GLP-1(7-36)NH2, read-out: hGLP-1R Emax, % ± SEM
Procedure, shortened: (§1)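 Cells were stimulated with peptide for 30 min at 37° C, then intracellular cAMP was measured by competitive HTRF (665/620 nm ratio) and converted to nM using a cAMP standard curve. Relative EC50 and Emax came from four-parameter logistic fits of percent maximal response against peptide concentration.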

[2] = molecular target: T1, hGCGR (Homo sapiens, UniProt P47871); assay: Functional cAMP formation (HTRF) in HEK-293 clonal cells expressing hGCGR, 0.1% bovine casein, without or with 1.0% human serum albumin
T1 construct: expressed in transfected cells
Procedure, shortened: as §1

[3] = molecular target: T2, hGIPR (Homo sapiens, UniProt P48546); assay: Functional cAMP formation (HTRF) in HEK-293 clonal cells expressing hGIPR, 0.1% bovine casein, without or with 1.0% human serum albumin; conditions: for Emax: percent of maximal response to GIP(1-42)NH2; for EC50: geometric mean
T2 construct: expressed in transfected cells
T2 sequence (P48546 22-466): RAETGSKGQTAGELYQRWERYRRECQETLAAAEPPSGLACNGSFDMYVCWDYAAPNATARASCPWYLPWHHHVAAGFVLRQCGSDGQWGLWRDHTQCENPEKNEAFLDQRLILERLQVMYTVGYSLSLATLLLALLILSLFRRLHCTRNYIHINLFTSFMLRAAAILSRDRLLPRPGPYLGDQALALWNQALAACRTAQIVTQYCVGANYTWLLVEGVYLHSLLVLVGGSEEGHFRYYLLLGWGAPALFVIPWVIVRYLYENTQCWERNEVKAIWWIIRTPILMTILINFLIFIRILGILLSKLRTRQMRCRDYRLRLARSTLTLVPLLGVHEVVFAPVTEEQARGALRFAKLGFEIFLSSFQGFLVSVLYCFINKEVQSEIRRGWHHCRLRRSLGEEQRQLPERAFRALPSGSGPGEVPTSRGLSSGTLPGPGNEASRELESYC
Procedure, shortened: as §1

[4] = cAMP, 37° C., 0.1% bovine casein (no human serum albumin), read-out: hGLP-1R EC50, nM (SEM, n)
[5] = 0.1% bovine casein and 1.0% human serum albumin, 37° C., geometric mean, read-out: hGCGR EC50, nM (SEM, n)
[6] = cAMP, 37° C., 0.1% bovine casein (no human serum albumin), geometric mean, read-out: hGCGR EC50, nM (SEM, n)
[7] = 0.1% bovine casein and 1.0% human serum albumin, 37° C., read-out: hGIPR EC50, nM (SEM, n)
[8] = HEK293, 0.1% bovine casein and 1.0% human serum albumin, 37° C., read-out: hGIPR Emax, % ± SEM
[9] = cAMP, 37° C., 0.1% bovine casein (no human serum albumin), read-out: hGIPR EC50, nM (SEM, n)

T1 sequence (P47871 26-477): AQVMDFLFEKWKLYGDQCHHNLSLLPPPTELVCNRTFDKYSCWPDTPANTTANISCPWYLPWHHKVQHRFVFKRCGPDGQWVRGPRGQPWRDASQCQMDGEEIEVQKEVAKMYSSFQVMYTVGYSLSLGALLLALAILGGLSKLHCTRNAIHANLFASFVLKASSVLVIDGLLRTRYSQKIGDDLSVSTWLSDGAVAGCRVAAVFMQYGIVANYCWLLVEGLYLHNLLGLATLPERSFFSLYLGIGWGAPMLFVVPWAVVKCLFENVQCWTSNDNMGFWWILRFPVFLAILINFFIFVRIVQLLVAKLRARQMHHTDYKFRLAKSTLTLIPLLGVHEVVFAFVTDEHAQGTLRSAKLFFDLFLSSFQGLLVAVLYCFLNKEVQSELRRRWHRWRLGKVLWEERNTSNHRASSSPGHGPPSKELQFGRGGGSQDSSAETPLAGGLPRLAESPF
hGLP-1R, sequence (P43220 24-463): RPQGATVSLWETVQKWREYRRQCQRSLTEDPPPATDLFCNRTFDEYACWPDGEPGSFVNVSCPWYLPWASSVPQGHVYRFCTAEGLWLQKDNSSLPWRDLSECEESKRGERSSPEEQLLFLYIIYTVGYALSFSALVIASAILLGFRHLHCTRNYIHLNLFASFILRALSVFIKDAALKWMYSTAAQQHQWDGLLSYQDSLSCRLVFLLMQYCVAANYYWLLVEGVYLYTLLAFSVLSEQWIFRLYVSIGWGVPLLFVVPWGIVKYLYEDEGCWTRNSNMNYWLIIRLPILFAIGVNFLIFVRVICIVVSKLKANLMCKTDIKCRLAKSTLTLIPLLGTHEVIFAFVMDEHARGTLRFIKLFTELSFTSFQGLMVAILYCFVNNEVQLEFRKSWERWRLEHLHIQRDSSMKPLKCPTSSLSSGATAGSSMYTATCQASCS

CC[C@H](C)[C@H](NC(=O)[C@H](CC(C)C)NC(=O)[C@](C)(Cc1ccc(O)cc1)NC(=O)[C@@H](CCC(=O)O)NC(=O)[C@@H](NC(=O)[C@H](Cc1ccccc1)NC(=O)[C@H](CCCCNC(=O)COCCOCCNC(=O)CC[C@H](NC(=O)CCCCCCCCCOc1ccc(C(=O)O)cc1)C(=O)O)NC(=O)C(C)(C)NC(=O)[C@H](CCC(N)=O)NC(=O)[C@H](C)NC(=O)[C@H](CCCCNC(=O)COCCOCCNC(=O)CC[C@H](NC(=O)CCCCCCCCCOc1ccc(C(=O)O)cc1)C(=O)O)NC(=O)[C@H](CCCN)NC(=O)[C@H](CC(=O)O)NC(=O)[C@H](CC(C)C)NC(=O)[C@](C)(CC(C)C)NC(=O)[C@@H](NC(=O)C(C)(C)NC(=O)[C@H](Cc1ccc(O)cc1)NC(=O)[C@H](CC(=O)O)NC(=O)[C@H](CO)NC(=O)[C@@H](NC(=O)[C@](C)(Cc1ccccc1F)NC(=O)[C@@H](NC(=O)CNC(=O)[C@H](CCC(=O)O)NC(=O)C(C)(C)NC(=O)[C@@H](N)Cc1ccc(O)cc1)[C@@H](C)O)[C@@H](C)O)[C@@H](C)CC)[C@@H](C)CC)C(=O)N[C@@H](CCC(=O)O)C(=O)NCC(=O)NCC(=O)N1CCC[C@H]1C(=O)N[C@@H](CO)C(=O)N[C@@H](CO)C(=O)NCC(=O)N[C@@H](C)C(=O)N1CCC[C@H]1C(=O)N1CCC[C@H]1C(=O)N1CCC[C@H]1C(=O)N[C@@H](CO)C(N)=O [Example 372]
EC50 ([1]; hGLP-1R EC50, nM (SEM, n), cAMP, 37° C., 0.1% bovine casein (no human serum albumin)): 0.291 nM | EC50 ([2]; hGCGR EC50, nM (SEM, n), cAMP, 37° C., 0.1% bovine casein (no human serum albumin), geometric mean): > 9950 nM | EC50 ([2]; hGCGR EC50, nM (SEM, n), cAMP, 37° C., 0.1% bovine casein and 1.0% human serum albumin, geometric mean (SEM, n)): > 9950 nM | Emax ([3]; HEK293, read-out: hGIPR Emax, % ± SEM, cAMP, 37° C., 0.1% bovine casein and 1.0% human serum albumin): 90.6% | Emax ([3]; HEK293, read-out: hGIPR Emax, % ± SEM, cAMP, 37° C., 0.1% bovine casein, arithmetic mean): 97.3% | EC50 ([3]; hGIPR EC50, nM (SEM, n), cAMP, 37° C., 0.1% bovine casein (no human serum albumin)): 0.0112 nM

CCCCCCCCCCCC(=O)N[C@@H](CCC(=O)NCCOCCOCC(=O)NCCOCCOCC(=O)NCCCC[C@H](NC(=O)[C@H](CCCN)NC(=O)[C@H](CC(=O)O)NC(=O)[C@H](CC(C)C)NC(=O)[C@](C)(CC(C)C)NC(=O)[C@@H](NC(=O)C(C)(C)NC(=O)[C@H](Cc1ccc(O)cc1)NC(=O)[C@H](CC(=O)O)NC(=O)[C@H](CO)NC(=O)[C@@H](NC(=O)[C@](C)(Cc1ccccc1F)NC(=O)[C@@H](NC(=O)CNC(=O)[C@H](CCC(=O)O)NC(=O)C(C)(C)NC(=O)[C@@H](N)Cc1ccc(O)cc1)[C@@H](C)O)[C@@H](C)O)[C@@H](C)CC)C(=O)N[C@@H](C)C(=O)N[C@@H](CCC(N)=O)C(=O)NC(C)(C)C(=O)N[C@@H](CCCCNC(=O)COCCOCCNC(=O)COCCOCCNC(=O)CC[C@H](NC(=O)CCCCCCCCCCC)C(=O)O)C(=O)N[C@@H](Cc1ccccc1)C(=O)N[C@H](C(=O)N[C@H](CCC(=O)O)C(=O)N[C@@](C)(Cc1ccc(O)cc1)C(=O)N[C@@H](CC(C)C)C(=O)N[C@H](C(=O)N[C@@H](CCC(=O)O)C(=O)NCC(=O)NCC(=O)N1CCC[C@H]1C(=O)N[C@@H](CO)C(=O)N[C@@H](CO)C(=O)NCC(=O)N[C@@H](C)C(=O)N1CCC[C@H]1C(=O)N1CCC[C@H]1C(=O)N1CCC[C@H]1C(=O)N[C@@H](CO)C(N)=O)[C@@H](C)CC)[C@@H](C)CC)C(=O)O [Example 300]
Emax ([1]; HEK293, 0.1% bovine casein and 1.0% human serum albumin, 37° C.): 109% | EC50 [1, 4]: 0.194 nM | EC50 [2, 5]: > 9950 nM | EC50 [2, 6]: > 9950 nM | EC50 [3, 7]: 1.25 nM | Emax [3, 8]: 91.5% | EC50 [3, 9]: 0.0128 nM

CC[C@H](C)[C@H](NC(=O)[C@H](CC(C)C)NC(=O)[C@](C)(Cc1ccc(O)cc1)NC(=O)[C@@H](CCC(=O)O)NC(=O)[C@@H](NC(=O)[C@H](Cc1ccccc1)NC(=O)[C@H](CCC(=O)O)NC(=O)C(C)(C)NC(=O)[C@H](CCC(N)=O)NC(=O)[C@H](C)NC(=O)[C@H](CCCCNC(=O)[C@@H](N)CCCCNC(=O)CC[C@H](NC(=O)CCCCCCCCCCCCC(=O)O)C(=O)O)NC(=O)[C@H](CCCN)NC(=O)[C@H](CC(=O)O)NC(=O)[C@H](CC(C)C)NC(=O)[C@](C)(CC(C)C)NC(=O)[C@@H](NC(=O)[C@H](CO)NC(=O)[C@H](Cc1ccncc1)NC(=O)[C@H](CC(=O)O)NC(=O)[C@H](CO)NC(=O)[C@@H](NC(=O)[C@](C)(Cc1ccccc1F)NC(=O)[C@@H](NC(=O)CNC(=O)[C@H](CCC(=O)O)NC(=O)C(C)(C)NC(=O)[C@@H](N)Cc1ccc(O)cc1)[C@@H](C)O)[C@@H](C)O)[C@@H](C)CC)[C@@H](C)CC)C(=O)N[C@@H](CCC(=O)O)C(=O)NCC(=O)NCC(=O)N[C@@H](CCCCNC(=O)[C@@H](N)CCCCNC(=O)CC[C@H](NC(=O)CCCCCCCCCCCCC(=O)O)C(=O)O)C(N)=O [Example 186] (H-Y[Aib]EGT[αMePhe(2-F)]TSD[4Pal]SI[αMeL]LD[Orn]K([εLys-γGlu-C14 diacid])AQ[Aib]EFI[dE][αMeY]LIEGGK([εLys-γGlu-C14 diacid])-NH2; N-terminus assumed)
EC50 ([1]; 0.1% bovine casein and 1.0% human serum albumin, 37° C., read-out: hGLP-1R EC50, nM (SEM, n)): 24.3 nM | EC50 ([1]; cAMP, incubated at 37° C., 0.1% bovine casein (no human serum albumin), read-out: hGLP-1R EC50, nM (SEM, n)): 0.371 nM | EC50 [2, 5]: > 9950 nM | EC50 ([2]; cAMP, incubated at 37° C., 0.1% bovine casein (no human serum albumin), geometric mean, read-out: hGCGR EC50, nM (SEM, n)): > 9950 nM | EC50 [3, 7]: 2.19 nM | Emax [3, 8]: 85.6% | EC50 ([3]; cAMP, incubated at 37° C., 0.1% bovine casein (no human serum albumin), read-out: hGIPR EC50, nM (SEM, n)): 0.0274 nM

CC[C@H](C)[C@H](NC(=O)[C@H](CC(C)C)NC(=O)[C@](C)(Cc1ccc(O)cc1)NC(=O)[C@@H](CCC(=O)O)NC(=O)[C@@H](NC(=O)[C@H](Cc1ccccc1)NC(=O)[C@H](CCCN)NC(=O)C(C)(C)NC(=O)[C@H](CCC(N)=O)NC(=O)[C@H](C)NC(=O)[C@H](CCCCNC(=O)COCCOCCNC(=O)COCCOCCNC(=O)CC[C@H](NC(=O)CCCCCCCCCCCCC(=O)O)C(=O)O)NC(=O)[C@H](CCCN)NC(=O)[C@H](CC(=O)O)NC(=O)[C@H](CC(C)C)NC(=O)[C@](C)(CC(C)C)NC(=O)[C@@H](NC(=O)C(C)(C)NC(=O)[C@H](Cc1ccc(O)cc1)NC(=O)[C@H](CC(=O)O)NC(=O)[C@H](CO)NC(=O)[C@@H](NC(=O)[C@](C)(Cc1ccccc1F)NC(=O)[C@@H](NC(=O)CNC(=O)[C@H](CCC(=O)O)NC(=O)C(C)(C)NC(=O)[C@@H](N)Cc1ccc(O)cc1)[C@@H](C)O)[C@@H](C)O)[C@@H](C)CC)[C@@H](C)CC)C(=O)N[C@@H](CCCCNC(=O)COCCOCCNC(=O)COCCOCCNC(=O)CC[C@H](NC(=O)CCCCCCCCCCCCC(=O)O)C(=O)O)C(=O)NCC(=O)NCC(=O)N1CCC[C@H]1C(=O)N[C@@H](CO)C(=O)N[C@@H](CO)C(=O)NCC(=O)N[C@@H](C)C(=O)N1CCC[C@H]1C(=O)N1CCC[C@H]1C(=O)N1CCC[C@H]1C(=O)N[C@@H](CO)C(N)=O [Example 349] (H-Y[Aib]EGT[αMePhe(2-F)]TSDY[Aib]I[αMeL]LD[Orn]K([AEEA-AEEA-γGlu-C14 diacid])AQ[Aib][Orn]FI[dE][αMeY]LIK([AEEA-AEEA-γGlu-C14 diacid])GGPSSGAPPPS-NH2; N-terminus assumed)
Emax ([1]; HEK293, cAMP, 37° C., 0.1% bovine casein and 1.0% human serum albumin): 94.3% | Emax ([1]; HEK293, cAMP, 37° C., 0.1% bovine casein, arithmetic mean): 99% | EC50 [1, 4]: 0.334 nM | EC50 [2, 6]: > 9950 nM | EC50 ([2]; cAMP, 37° C., 0.1% bovine casein and 1.0% human serum albumin, geometric mean (SEM, n), read-out: hGCGR EC50, nM (SEM, n)): > 9950 nM | Emax ([3]; HEK293, cAMP, 37° C., 0.1% bovine casein and 1.0% human serum albumin, read-out: hGIPR Emax, % ± SEM): 79.3% | Emax ([3]; HEK293, cAMP, 37° C., 0.1% bovine casein, arithmetic mean, read-out: hGIPR Emax, % ± SEM): 95.9% | EC50 [3, 9]: 0.015 nM
